In data set [1] the test system is SARS-CoV-2. In words: Antiviral assay (viral RNA in supernatant by qRT-PCR). In kind it is cell-based, SARS-CoV-2 (WIV-04).
In data set [2] the test system is SARS-CoV-2. As to the kind of experiment: CPE-based HTS assay (CPE reduction quantified by CCK-8 cell viability). Particulars: for inhibition at 10 µM: Severe acute respiratory syndrome coronavirus 2, Vero C1008, 48 h, read-out: protection from CPE; for protection against SARS-CoV-2 infection: known inhibitors used as positive controls.
Data set [3] can be described thus: Cytotoxicity assay (CCK-8). The class given is cell-based. Conditions: African green monkey. The procedure: (§1) Vero-E6 cells were seeded in 96-well plates (1 × 10^4 cells per well) and allowed to grow for 24 h before treatment. Then, serial 2-fold dilutions of compounds were added to the cells. At 48 h, the cells were incubated with 10 μL CCK-8 reagent (cell counting kit-8, Bimake) for 1 h at 37 °C. The absorbance at 450 nm was read by a Microplate Reader (Varioskan Flash, Thermo Fisher). Cell viability was expressed as a percentage of the treated cells to the control (untreated) cells. For each compound concentration, three wells were performed in parallel, and the mean values of the cell viability were calculated.

In data set [4] the test system is Vero-E6 cells. In words: Cytotoxicity assay (CCK-8). In kind it is cell-based. Conditions: Vero-E6 cells, 48 h, CCK-8. The procedure: as §1
Data set [5] concerns SARS-CoV-2. As to the kind of experiment: Addition of sodium and potassium assay. The class given is cell-based, SARS-CoV-2 (WIV-04).
Where [6] appears, read: Vero-E6 cells, 48 h, CCK-8, read-out: CC50.
Where [7] appears, read: Severe acute respiratory syndrome coronavirus 2, Vero C1008, read-out: EC50.
The mark [8] stands for this setting: Severe acute respiratory syndrome coronavirus 2, Vero C1008.
[9] abbreviates: primary screening, compound 10 µM, Vero-E6 cells, MOI 0.01, 48 hpi.

Read-outs that look alike come from different tables or passages of the source.

Regarding Brusatol, the concentration giving a half-maximal response (EC50) in data set [1] (read-out: EC50) worked out at 0.0492 µM.

In the case of `COc1ccc2cc1Oc1ccc(cc1)C[C@H]1c3c(cc4c(c3Oc3cc5c(cc3OC)CCN(C)[C@@H]5C2)OCO4)CCN1C` [cepharanthine], the inhibition at 10 µM in data set [2] is above 50%. As for `C[C@H]1O[C@@H](O[C@H]2[C@@H](O)C[C@H](O[C@H]3[C@@H](O)C[C@H](O[C@H]4CC[C@@]5(C)[C@H](CC[C@@H]6[C@@H]5C[C@@H](O)[C@]5(C)[C@@H](C7=CC(=O)OC7)CC[C@]65O)C4)O[C@@H]3C)O[C@@H]2C)C[C@H](O)[C@@H]1O` [Digoxin, reference compound], the CC50 at 48 h in data set [3] (setting [6]) was above 40 µM. The EC50 in data set [1] (setting [7]) stood at 0.154 µM. For the same molecule, in data set [2], the inhibition at 10 µM is above 50%. As to `COc1ccc(C(=O)O[C@H]2CC[C@@]3(C)[C@@H]4CC[C@H]5[C@]6(O)C[C@H](O)[C@@]7(O)[C@@H](CN8C[C@@H](C)CC[C@H]8[C@@]7(C)O)[C@]6(O)C[C@@]53O[C@]24O)cc1OC` [Veratridine], in data set [3] (setting [6]), the CC50 at 48 h was above 100 µM. For the same molecule, the EC50 in data set [1] (setting [7]) came out at 2.38 µM. Consider `CC(C)=CCc1cc2c(cc1O)oc(=O)c1c3ccc(O)cc3oc21` [psoralidin], for which, in data set [2], the “protection from CPE” value was above 50%. `C=C1CC[C@H]2C(=C)CC[C@H]3C(=C)C(=O)O[C@@H]3[C@@H]12` [Dehydrocostus lactone] yielded a CC50 at 48 h in data set [3] of 36.2 µM. Also, the EC50 in data set [1] (setting [7]) was found to be 2.32 µM. In data set [3], `COC(=O)[C@@]12OC[C@]34[C@H]([C@@H](O)[C@@H]1O)[C@@]1(C)CC(=O)C(O)=C(C)[C@@H]1C[C@H]3OC(=O)[C@H](OC(=O)CC(C)C)[C@@H]24` [Bruceine A] came in with a CC50 at 48 h of 31.4 µM. This molecule displayed an EC50 in data set [1] (setting [8]) of 0.011 µM.

In the case of `C=C(C)[C@@H]1CC[C@]2(C)[C@H](CC=C3[C@@H]4[C@@H](C)[C@H](C)CC[C@]4(C)CC[C@]32C)[C@@]1(C)CCC(=O)O` [Roburicacid], the CC50 in data set [4] is above 40 µM. In data set [1] (read-out: EC50), the EC50 was found to be 5.27 µM. Regarding `CC(C)=CCc1cc2c(cc1O)O[C@H](c1ccc(O)cc1)CC2=O` [bavachin], the inhibition at 10 µM in data set [2] (setting [9]) is above 50%. Take `COc1cc2c(cc1OC)[C@@H](Cc1ccc(O)c(Oc3cc4c(cc3OC)CCN(C)[C@@H]4Cc3ccc(O)cc3)c1)N(C)CC2` [Liensinine]: half-maximal cytotoxicity in data set [4] (CC50) was put at 25.4 µM. The EC50 in data set [1] (read-out: EC50) amounted to 2.54 µM. Take `COc1ccc2cc1Oc1ccc(cc1)C[C@H]1c3cc(c(OC)cc3CCN1C)Oc1c(OC)c(OC)cc3c1[C@H](C2)N(C)CC3` [tetrandrine]: in data set [2] (setting [9]), the inhibition at 10 µM was above 50%. Same read-out and setting: as for `Cc1coc2c1C(=O)C(=O)c1c-2ccc2c1CCCC2(C)C` [tanshinone IIA], the figure is above 50%. Regarding `CCC(CC)COC(=O)[C@H](C)N[P@](=O)(OC[C@H]1O[C@@](C#N)(c2ccc3c(N)ncnn23)[C@H](O)[C@@H]1O)Oc1ccccc1` [remdesivir, reference compound], the “protection against SARS-CoV-2 infection” value in data set [2] (Vero-E6 cells, MOI 0.01, 48 h) was “provided protection”. In data set [4], `CC1(C)CC[C@]2(C(=O)O)CC[C@]3(C)C(=CC[C@@H]4[C@@]5(C)CC[C@H](O[C@@H]6O[C@H](C(=O)O)[C@@H](O)[C@H](O[C@@H]7OC[C@@H](O)[C@H](O)[C@H]7O)[C@H]6O)C(C)(C)[C@@H]5CC[C@]43C)[C@@H]2C1` [Momordinic] gave a CC50 above 40 µM. In data set [1] (read-out: EC50), the EC50 turned out to be 3.53 µM.

In data set [4], `CO[C@H]1C[C@H](O[C@H]2CC[C@]3(C)[C@H]4CC[C@]5(C)[C@@H](C6=CC(=O)OC6)CC[C@]5(O)[C@@H]4CC[C@]3(O)C2)O[C@H](C)[C@H]1O[C@@H]1O[C@H](CO)[C@@H](O)[C@H](O)[C@H]1O` [Periplocoside] had a CC50 above 40 µM. In addition, the EC50 in data set [1] (read-out: EC50) was determined as 0.0657 µM. For the molecule `CC(C)=CCc1c(O)ccc(C(=O)/C=C/c2ccc(O)cc2)c1O` [isobavachalcone], the inhibition at 10 µM in data set [2] (setting [9]) was above 50%. `C=C1C(=O)O[C@@H]2C[C@@]3(C)CCCC(=C)[C@@H]3C[C@H]12` [Isoalantolactone]: the CC50 at 48 h in data set [3] (setting [6]) was above 40 µM. Also, the EC50 in data set [1] (setting [7]) was 1.48 µM.

Take `CC(=O)O[C@H]1[C@H]2O[C@]23[C@@H]2CC[C@@H]4C[C@@H](O)CC[C@]4(C)[C@H]2CC[C@]3(C)[C@H]1c1ccc(=O)oc1` [Cinobufagin]: the CC50 at 48 h in data set [3] (setting [6]) is above 40 µM. Further, the EC50 in data set [1] (setting [7]) turned out to be 0.018 µM. In the case of CB6: neutralizing human antibody CB6, the “protection against SARS-CoV-2 infection” value in data set [2] ([…]) is “provided protection”. As for `C=C1C(=O)[C@]23[C@H](O)[C@H]1CC[C@H]2[C@@]12CO[C@]3(O)[C@@H](O)[C@@H]1C(C)(C)CC[C@@H]2O` [Oridonin], the CC50 at 48 h in data set [3] was above 40 µM. Moreover, in data set [1] (setting [7]), the EC50 was found to be 1.46 µM. `C[C@]12CC[C@H](O)C[C@H]1CC[C@@H]1[C@@H]2CC[C@]2(C)[C@@H](c3ccc(=O)oc3)CC[C@]12O` [Bufalin]: in data set [5], the “inhibitory effect on SARS-CoV-2 with added extracellular KCl” value is on record as “suppressed by KCl” and the “inhibitory effect on SARS-CoV-2 with added extracellular NaCl” value is “enhanced by NaCl”. The CC50 at 48 h in data set [3] (setting [6]) is above 40 µM. Besides, the EC50 in data set [1] (setting [7]) is 0.018 µM. Besides, the inhibition at 10 µM in data set [2] was above 50%. Turning to `COC(=O)[C@H]1[C@H]2C[C@@H]3c4[nH]c5cc(OC)ccc5c4CCN3C[C@H]2C[C@@H](OC(=O)c2cc(OC)c(OC)c(OC)c2)[C@@H]1OC` [reserpine, reference compound], the inhibition at 10 µM in data set [2] (setting [9]) was above 50%. For `COc1ccc2cc1Oc1ccc(cc1)C[C@H]1c3cc(c(OC)cc3CCN1C)Oc1c(O)c(OC)cc3c1[C@H](C2)N(C)CC3` [fangchinoline], the inhibition at 10 µM in data set [2] was above 50%. For the molecule `C[C@H]1COC2=C1C(=O)C(=O)c1c2ccc2c1CCCC2(C)C` [Cryptotanshinone], the CC50 at 48 h in data set [3] (setting [6]) was above 100 µM. Also, the EC50 in data set [1] (setting [7]) stood at 5.02 µM. Further, the inhibition at 10 µM in data set [2] is above 50%. The molecule `CC(=O)O[C@H]1C[C@]2(O)[C@@H]3CC[C@@H]4C[C@@H](O)CC[C@]4(C)[C@H]3CC[C@]2(C)[C@H]1c1ccc(=O)oc1` [Bufotaline] displayed a CC50 in data set [4] above 40 µM. Besides, the EC50 in data set [1] (read-out: EC50) came out at 0.0259 µM.

Turning to `COc1ccc(C[C@@H]2c3cc(Oc4cc(C[C@@H]5c6cc(O)c(OC)cc6CCN5C)ccc4O)c(OC)cc3CCN2C)cc1` [Isoliensinine], in data set [3], the CC50 at 48 h worked out at 40 µM. Moreover, the EC50 in data set [1] (setting [7]) was 1.61 µM.

In data set [4], `C/C=C/c1cc(OC)c2c(c1)C(C)C(c1ccc(O)c(OC)c1)O2` (centres unmarked) [Dehydrodiisoeugenol] came in with a CC50 above 100 µM. Further, the EC50 in data set [1] (read-out: EC50) was determined as 10.3 µM. For `C=C1C(=O)O[C@@H]2C[C@@]3(C)CCC[C@H](C)C3=C[C@H]12` [Alantolactone] the same measures were 36.7 µM and 1.72 µM.

Consider `O[C@H]1[C@H]2c3cc4c(cc3CN3CCC(=C[C@@H]1O)[C@H]23)OCO4` [lycorine], for which the inhibition at 10 µM in data set [2] is above 50%. For IFN-α, in data set [2] ([…]), the “protection against SARS-CoV-2 infection” value is “provided protection”.

Molecule `COc1cc(/C=C/C=O)ccc1O` [Coniferylaldehyde] returned a CC50 at 48 h in data set [3] above 40 µM. The molecule also yielded an EC50 in data set [1] (setting [8]) of 11 µM. Turning to `CCN(CC)CCCC(C)Nc1ccnc2cc(Cl)ccc12` (centres unmarked) [chloroquine, reference compound], the EC50 in data set [1] (Severe acute respiratory syndrome coronavirus 2, Vero C1008, 48 h, read-out: EC50 determined by viral RNA copies) turned out to be 1.78 µM; in data set [2] (Severe acute respiratory syndrome coronavirus 2, Vero C1008, Vero-E6 cells, MOI 0.01, 48 hpi, CCK-8, read-out: EC50 (inhibition of CPE)) it was 2.65 µM. Moreover, the “protection against SARS-CoV-2 infection” value in data set [2] (Vero-E6 cells, MOI 0.01, 48 h) is “provided protection”. Take `C=C[C@H]1[C@H](O[C@@H]2O[C@H](CO)[C@@H](O)[C@H](O)[C@H]2O)OC=C(C(=O)OC)[C@H]1CCOC(=O)c1cc(O)c(O)c(O)c1` [Cornuside]: the CC50 in data set [4] is above 40 µM. The EC50 in data set [1] (read-out: EC50) was found to be 5.26 µM.

For orientation: EC50 means the concentration at which the effect is half-maximal. By CC50 is commonly meant the concentration at which the toxic effect on the cells reaches its halfway point.

(Values after article PMC7532339, “A cell-based large-scale screening of natural compounds for inhibitors of SARS-CoV-2” (Signal Transduction and Targeted Therapy, 2020).)
